Among the data in DBAASP are MIC values, retold here.

Common to all, as to test: ≥ marks a high value that may be exact or a test limit, other limits are often not marked, values filed in µg/mL are converted to µM
Test [1] has as its system Bacillus cereus C737.
Test [2] deals with Escherichia coli UB1005.
Test [3] concerns Pseudomonas aeruginosa PAO1.
For test [4], the system named is Bacillus cereus ATCC 11778.
The subject of test [5] is Escherichia coli ATCC 25922.
Test [6] relates to Klebsiella pneumoniae ATCC 700603.
Test [7] relates to Pseudomonas aeruginosa ATCC 27853.
Test [8] concerns Salmonella enterica subsp. enterica serovar Enteritidis ATCC 13076.
Test [9] concerns Serratia marcescens ATCC 21202.
Test [10] deals with Staphylococcus aureus ATCC 29213.
The test system of test [11] is Streptococcus pyogenes ATCC 19615.
Test [12] relates to Bacillus subtilis CMCC 63501.
Test [13] has as its system Candida albicans CA2761.
The test system of test [14] is Candida albicans CGMCC 2.2086.
For test [15], the system named is Candida krusei CGMCC 2.1857.
Test [16] concerns Candida tropicalis CGMCC 2.1975.
For test [17], the system named is Enterococcus faecalis ATCC 29212.
Test [18] deals with Escherichia coli 078.
The subject of test [19] is Escherichia coli EC183.
The test system of test [20] is Escherichia coli K88.
The subject of test [21] is Escherichia coli K99.
Test [22] relates to Salmonella enterica subsp. enterica serovar Pullorum C79-13.
The subject of test [23] is Salmonella enterica subsp. enterica serovar Typhimurium ATCC 14028.
Test [24] relates to Salmonella enterica subsp. enterica serovar Typhimurium C77-31.
For test [25], the system named is Staphylococcus aureus ATCC 25923.
The subject of test [26] is Staphylococcus epidermidis ATCC 12228.
Test [27] deals with Bacillus subtilis CICC 10034.
For test [28], the system named is Enterobacter cloacae CICC 21539.
Test [29] concerns Escherichia coli CICC 10293.
For test [30], the system named is Listeria innocua CICC 10417.
Test [31] concerns Pseudomonas aeruginosa CICC 21636.
The test system of test [32] is Salmonella enterica subsp. enterica serovar Paratyphi B CICC 10437.
Test [33] has as its system Serratia marcescens ATCC 4112.
Test [34] deals with Staphylococcus aureus CICC 10306.
Test [35] concerns Staphylococcus aureus CICC 10384.
Test [36] relates to Acinetobacter baumannii ATCC 19606.
For test [37], the system named is Bacillus subtilis ATCC 6051.
Test [38] concerns Vibrio anguillarum ATCC 43305.
For test [39], the system named is Acinetobacter baumannii ATCC 15308.
Test [40] concerns Citrobacter sp.
Test [41] deals with Enterobacter cloacae.
Test [42] concerns Klebsiella pneumoniae.
For test [43], the system named is Pseudomonas aeruginosa ATCC 15442.
Test [44] deals with Staphylococcus aureus.
In test [45] the test system is Streptococcus pneumoniae.

As a reminder, the MIC is the smallest concentration in the dilution series that meets the test's criterion for growth inhibition. A higher MIC goes with a less susceptible organism.

≈ marks a conversion by molar mass, not a printed value.

On to `CC[C@H](C)[C@H](NC(=O)[C@H](CC(=O)O)NC(=O)[C@H](Cc1ccccc1)NC(=O)[C@H](CC(C)C)NC(=O)CN)C(=O)N[C@H](C(=O)N[C@@H](CCCCN)C(=O)N[C@@H](CCCCN)C(=O)N[C@H](C(=O)N[C@H](C(N)=O)C(C)C)C(C)C)C(C)C` [GLFDIVKKVV], for which the minimal inhibitory concentration (MIC) in [1] is not below 115 µM; in test [2], not below 115 µM; in [3] it was more than 115 µM.
As for `CC[C@H](C)[C@H](N)C(=O)N[C@H](C(=O)N1CCC[C@H]1C(=O)N[C@@H](CC(C)C)C(=O)N1CCC[C@H]1C(=O)N[C@@H](CC(C)C)C(=O)NCC(=O)N[C@@H](Cc1ccc(O)cc1)C(=O)N[C@@H](Cc1ccccc1)C(=O)N[C@@H](C)C(=O)N[C@@H](CCCCN)C(=O)N[C@@H](CCCCN)C(=O)N1CCC[C@H]1C(=O)O)[C@@H](C)CC` [IIPLPLGYFAKKP], the minimal inhibitory concentration (MIC) in test [4] was not below 68.6 µM; in [5] it was more than 68.6 µM; in test [6], more than 68.6 µM; in test [7] it was more than 68.6 µM; in test [8] it was not below 68.6 µM; in test [9], not below 68.6 µM. The figures for the minimal inhibitory concentration (MIC) in test [10] and in test [11] were more than 68.6 µM and not below 68.6 µM, respectively.
Consider `CC[C@H](C)[C@H](NC(=O)[C@H](Cc1c[nH]c2ccccc12)NC(=O)[C@H](CCCCN)NC(=O)[C@H](CC(C)C)NC(=O)[C@@H](NC(=O)[C@H](CCCCN)NC(=O)CNC(=O)[C@@H](NC(=O)[C@H](CCCCN)NC(=O)[C@H](CCCCN)NC(=O)[C@H](CC(C)C)NC(=O)[C@@H](N)CCCN=C(N)N)[C@@H](C)CC)C(C)C)C(N)=O` [RLKKIGKVLKWI], for which the MIC in test [12] was 2 µM (≈ 2.96 µg/mL); in test [13] it was not below 128 µM; in test [14], not below 128 µM; in test [15] it was 16 µM (≈ 23.7 µg/mL); in [16], 8 µM (≈ 11.8 µg/mL); in [17] it was 64 µM (≈ 94.8 µg/mL). Further, the minimal inhibitory concentration (MIC) in [18] turned out to be 16 µM (≈ 23.7 µg/mL); in test [5] it was 8 µM (≈ 11.8 µg/mL); in test [19] it was 2 µM (≈ 2.96 µg/mL); in [20] it was 4 µM (≈ 5.92 µg/mL); in test [21], 4 µM (≈ 5.92 µg/mL); in [2] it was 16 µM (≈ 23.7 µg/mL). Further, the MIC in [22] came to 4 µM (≈ 5.92 µg/mL); in [23], 16 µM (≈ 23.7 µg/mL); in [24], 8 µM (≈ 11.8 µg/mL); in test [25], 128 µM (≈ 190 µg/mL); in [10], 64 µM (≈ 94.8 µg/mL); in [26], 64 µM (≈ 94.8 µg/mL).
For the compound `CSCC[C@H](NC(=O)[C@@H](NC(=O)[C@@H](N)CCCN=C(N)N)C(C)C)C(=O)N[C@@H](Cc1ccccc1)C(=O)N[C@@H](CCCCN)C(=O)N[C@@H](Cc1c[nH]c2ccccc12)C(=O)N[C@@H](C)C(=O)O` [RVMFKWA], the MIC in [27] was not below 34.1 µM; in test [28], not below 34.1 µM; in [29] it was 17.1 µM (≈ 16 µg/mL); in test [30], 8.54 µM (≈ 8 µg/mL); in test [31], not below 34.1 µM; in test [32], not below 34.1 µM. In addition, the values for the minimum inhibitory concentration (MIC) in test [33], in test [34] and in test [35] were not below 34.1 µM, 8.54 µM (≈ 8 µg/mL) and 8.54 µM (≈ 8 µg/mL), respectively.
`CC[C@H](C)[C@H](NC(=O)[C@H](CCCN=C(N)N)NC(=O)[C@H](CCCN=C(N)N)NC(=O)[C@@H](NC(=O)[C@@H](NC(=O)[C@H](CCCN=C(N)N)NC(=O)[C@H](CCCN=C(N)N)NC(=O)[C@H](Cc1ccccc1)NC(=O)[C@H](CCCN=C(N)N)NC(=O)[C@H](CCCN=C(N)N)NC(=O)[C@H](CCCN=C(N)N)NC(=O)[C@H](CCCN=C(N)N)NC(=O)[C@@H](N)CCCN=C(N)N)C(C)C)[C@@H](C)CC)C(=O)N[C@@H](CCCN=C(N)N)C(=O)N[C@@H](CC(C)C)C(=O)N1CCC[C@H]1C(=O)N[C@@H](CCCCN)C(=O)N[C@@H](Cc1ccc(O)cc1)C(=O)N[C@@H](CC(C)C)C(=O)N[C@H](C(=O)N[C@H](C(=O)N[C@@H](CC(N)=O)C(=O)N[C@H](C(=O)N[C@@H](CCC(=O)O)C(=O)O)[C@@H](C)O)[C@@H](C)CC)[C@@H](C)O` [RRRRRFRRVIRRIRLPKYLTINTE]: the MIC is 2 µM (≈ 6.45 µg/mL) in [36]; not below 32 µM in [37]; 4 µM (≈ 12.9 µg/mL) in test [5]; 32 µM (≈ 103 µg/mL) in test [7]; 8 µM (≈ 25.8 µg/mL) in test [25]; not below 32 µM in test [38].
With `NC(=O)[C@H](CCCN=C(N)N)NC(=O)[C@H](CCCN=C(N)N)NC(=O)[C@H](Cc1c[nH]c2ccccc12)NC(=O)[C@@H]1CCCN1C(=O)[C@H](Cc1c[nH]c2ccccc12)NC(=O)[C@H](Cc1c[nH]c2ccccc12)NC(=O)[C@@H]1CCCN1C(=O)[C@H](Cc1c[nH]c2ccccc12)NC(=O)[C@H](CCCN=C(N)N)NC(=O)[C@H](Cc1c[nH]c2ccccc12)NC(=O)[C@@H]1CCCN1C(=O)[C@H](CCCN=C(N)N)NC(=O)[C@@H](N)CCCN=C(N)N` [RRPWRWPWWPWRR], the MIC in test [39] was not below 124 µM; in [40], not below 124 µM; in [41] it was not below 124 µM; in test [5], 15.5 µM (≈ 31.2 µg/mL); in [42], more than 124 µM; in test [43], 15.5 µM (≈ 31.2 µg/mL). Further, the minimum inhibitory concentration (MIC) in [25], in test [44] and in test [45] was 15.5 µM (≈ 31.2 µg/mL) throughout.
